Measured values taken from paper PMC8071435, “Amorphous Solid Dispersion Tablets Overcome Acalabrutinib pH Effect in Dogs” (Pharmaceutics, 2021).
Where two headings read alike, the source gives them in different places. Marks after values point to notes of the source that are not given here.

Key:
CYP3A4 = tested on: CYP3A4; set-up: method as in PMID 31306750; details: humans; cited from earlier work
[1] = Chemical stability: total impurities (total related substances) by RP-HPLC after storage; assay type: physicochemical; details: 40 °C/75% RH/open, perforated seal
Description: The ASD was stored at 40 °C/75% relative humidity (RH) to assess physical and chemical stability under accelerated storage conditions. Initial ASD samples and aged ASDs were analyzed for crystallinity using PXRD, thermal properties using mDSC, changes in morphology or presence of surface crystals using SEM, and chemical degradation by reverse-phase high-performance liquid chromatography (RP-HPLC). The ASD and ASD tablets were stored at ambient and refrigerated conditions to assess the chemical stability at nonaccelerated conditions. Initial and aged ASD samples were analyzed for total related substances using RP-HPLC. See Appendix A.3 for method details.
ASD and ASD tablet samples were analyzed for total related substances using RP-HPLC using a Waters XBridge C8 (150 × 3 mm, 3.5 µm pores) column (Waters Corporation, Milford, MO, USA) at a temperature of 40 °C. Mobile phase was pumped into the column at a flow rate of 0.7 mL/min using a gradient method. 10 mM ammonium acetate was used as mobile phase A and methanol was used as mobile phase B supplied according to the following sequence: 0 min: 20% B, 30 min: 70% B, 40 min: 70% B, 41 min: 20% B, […]. Samples were diluted with 8/2 (v/v) methanol/water and injection volume was 5 µL. The sample tray was held at uncontrolled room temperature. Analysis wavelength was 230 nm and 4 nm bandwidth.
The ASD was stored at 40 °C/75% relative humidity (RH) to assess physical and chemical stability when stored under accelerated conditions. Approximately 100 mg of ASD was placed in a single 4 mL glass vial, with enough glass vials prepared for each storage condition, timepoint and replicate. […] Initial ASD samples and aged ASDs were analyzed for crystallinity using SEM and PXRD, thermal properties using mDSC (in triplicate) and total related substances using RP-HPLC (duplicate analysis).
Additional ASD samples were stored at ambient and refrigerated conditions to assess the chemical stability upon storage at nonaccelerated conditions. […] Initial and aged ASD samples were analyzed for total related substances using RP-HPLC (duplicate analysis). […]

[2] = set-up: method as in PMID 31306750; details: cited from earlier work
[3] = set-up: method as in PMID 31306750; details: cited from earlier work; remark: listed apart in the source
[4] = set-up: method as in PMID 31306750; details: cited from earlier work; remark: listed apart in the source
[5] = set-up: method as in PMID 31306750; details: humans; cited from earlier work

SMILES: CC#CC(=O)N1CCC[C@H]1c1nc(-c2ccc(C(=O)Nc3ccccn3)cc2)c2c(N)nccn12 [acalabrutinib]
- Fraction metabolized by CYP3A4 in the gut (CYP3A4): approximately 50%
- Total impurities after 4 wk ([1]; 4 wk): 0.70 ± 0.04 area%
- Total impurities after 12 wk ([1]; 12 wk): 0.94 ± 0.05 area%
- Total impurities, initial ([1]; initial (different ASD batch)): 0.59 ± 0.00 area%
- log P [2]: 2.0 ^a
- Crystalline intrinsic solubility [3]: 48 ^a µg/mL
- pKas in physiological range ([4]; higher basic pKa): 5.8
- pKas in physiological range ([4]; lower basic pKa): 3.5
- Fraction metabolized by first-pass liver extraction [5]: 50%
